Test results from US20260285880A1, “SUBSTITUTED DIHYDROTHIENOPYRIMIDINE COMPOUND, PREPARATION METHOD THEREFOR, AND USE THEREOF” (SHANGHAI YIDI BIOTECHNOLOGY CO., LTD., priority 2023, published 2026).

Key:
PDE4B2 = PDE4B2 (Homo sapiens, UniProt Q07343); conditions: read-out: PDE4B2 IC50; enzyme assay
Flpin-293-PDE4B2 cells = Flpin-293-PDE4B2 cells (Homo sapiens, UniProt Q07343); assay: cell-based; conditions: for inhibition at 0.001 µM: read-out: Cell Inhibition % @1 nM, 1 nM, Flpin-293-PDE4B2 cells; for inhibition at 0.01 µM: read-out: Cell Inhibition % @10 nM, 10 nM, Flpin-293-PDE4B2 cells; for inhibition at 0.1 µM: read-out: Cell Inhibition % @100 nM, 100 nM, Flpin-293-PDE4B2 cells
PDE4D2 = PDE4D2 (Homo sapiens, UniProt Q08499); assay: PDE4D2 enzyme experiment (AMP-Glo); conditions: read-out: PDE4D2 IC50 Binding; enzyme assay
Sequence of PDE4D2 (Q08499 303-809 limits assumed): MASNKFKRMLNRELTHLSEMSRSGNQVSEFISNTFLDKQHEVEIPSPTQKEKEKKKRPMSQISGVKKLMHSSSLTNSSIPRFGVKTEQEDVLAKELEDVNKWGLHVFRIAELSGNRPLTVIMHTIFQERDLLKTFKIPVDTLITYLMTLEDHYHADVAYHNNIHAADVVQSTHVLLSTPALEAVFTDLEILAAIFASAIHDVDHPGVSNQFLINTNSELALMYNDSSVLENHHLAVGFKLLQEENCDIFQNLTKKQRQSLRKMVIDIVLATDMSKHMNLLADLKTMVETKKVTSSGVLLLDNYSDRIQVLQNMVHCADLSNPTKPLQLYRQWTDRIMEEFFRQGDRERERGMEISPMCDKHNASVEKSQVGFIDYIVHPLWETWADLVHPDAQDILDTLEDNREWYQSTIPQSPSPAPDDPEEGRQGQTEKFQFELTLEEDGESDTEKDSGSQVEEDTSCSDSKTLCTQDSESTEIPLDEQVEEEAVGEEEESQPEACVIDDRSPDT

Sequence of PDE4B2 (Q07343 1-564 isoform Q07343-2, species assumed): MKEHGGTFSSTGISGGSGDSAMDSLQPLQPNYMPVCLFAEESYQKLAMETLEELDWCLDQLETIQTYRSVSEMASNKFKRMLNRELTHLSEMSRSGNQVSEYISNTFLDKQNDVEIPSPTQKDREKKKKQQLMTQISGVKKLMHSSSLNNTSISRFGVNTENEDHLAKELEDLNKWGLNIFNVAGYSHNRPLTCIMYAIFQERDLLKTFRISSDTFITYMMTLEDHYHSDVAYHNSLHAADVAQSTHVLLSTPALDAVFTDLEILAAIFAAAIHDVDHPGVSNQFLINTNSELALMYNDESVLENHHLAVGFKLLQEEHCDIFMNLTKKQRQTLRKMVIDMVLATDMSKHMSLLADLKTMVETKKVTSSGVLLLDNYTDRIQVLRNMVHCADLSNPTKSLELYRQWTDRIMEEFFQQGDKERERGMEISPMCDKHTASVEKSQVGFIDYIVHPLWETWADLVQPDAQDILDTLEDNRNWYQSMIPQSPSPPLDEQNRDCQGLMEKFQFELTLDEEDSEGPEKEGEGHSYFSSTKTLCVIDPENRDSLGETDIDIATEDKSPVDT
Sequence of Flpin-293-PDE4B2 cells (Q07343 1-564 isoform Q07343-2): as the sequence (Q07343 1-564 isoform Q07343-2, species assumed) above

IC50 (PDE4B2) [nM] | inhibition at 0.001 µM (Flpin-293-PDE4B2 cells) [%] | inhibition at 0.01 µM (Flpin-293-PDE4B2 cells) [%] | inhibition at 0.1 µM (Flpin-293-PDE4B2 cells) [%] | IC50 (PDE4D2) [nM] | Molecule
0.45 | 25.3 | 93.8 | 101 | 0.116 | O=S1(=O)CCC(Nc2nc(N3CCc4cc(N5CCCC5)ccc4C3)nc3c2[S+]([O-])CC3)CC1 (centres unmarked) [Compound 187]
0.951 | 19.8 | 77.4 | 100 | 1.64 | CN(C)c1ccc2c(c1)CCN(c1nc3c(c(NC4(CO)CCC4)n1)[S+]([O-])CC3)C2 (centres unmarked) [Compound 126]
0.589 | 10.7 | 52.8 | 93.8 | 0.584 | CN1C[C@@H]2CCN(c3ccc4c(c3)CCN(c3nc5c(c(NC6(CO)CCC6)n3)[S+]([O-])CC5)C4)[C@@H]2C1 (some centres unmarked) [Compound 162]
0.138 | 26.5 | 91 | 99.7 | 0.279 | [O-][S+]1CCc2nc(N3CCc4cc(N5CC6COCC6C5)ccc4C3)nc(NC3(CO)CCC3)c21 (centres unmarked) [Compound 154]
0.956 |  |  |  | 1.12 | [O-][S+]1CCc2nc(N3CCc4nc(N5CCCC5)sc4C3)nc(NC3(CO)CCC3)c21 (centres unmarked) [Compound 195]
0.113 | 13.9 | 72.5 | 100 | 0.252 | [O-][S+]1CCc2nc(N3CCc4cc(N5CCCCC5)ccc4C3)nc(NC3(CO)CCC3)c21 (centres unmarked) [Compound 143]
0.245 | 4.25 | 36 | 95.9 | 0.985 | [O-][S+]1CCc2nc(N3CCc4cc(N5CC6CC6C5)ccc4C3)nc(NC3(CO)CCC3)c21 (centres unmarked) [Compound 145]
0.0407 | 48.1 | 98.3 | 101 | 0.0825 | CN1CC(Nc2nc(N3CCc4cc(Cl)ccc4C3)nc3c2[S+]([O-])CC3)CCC1=O (centres unmarked) [Compound 136]
0.098 | 19.2 | 86.8 | 101 | 0.24 | C[C@H]1CCCN1c1ccc2c(c1)CCN(c1nc3c(c(NC4(CO)CCC4)n1)[S+]([O-])CC3)C2 (some centres unmarked) [Compound 134]
0.17 | 11.9 | 56.7 | 96.7 | 0.3 | O=S1(=O)C[C@H]2C[C@@H]1CN2c1ccc2c(c1)CCN(c1nc3c(c(NC4(CO)CCC4)n1)[S+]([O-])CC3)C2 (some centres unmarked) [Compound 163]
0.182 | 10.2 | 76.8 | 99.9 | 0.52 | [O-][S+]1CCc2nc(N3CCc4cc(N5C[C@H]6C[C@@H]5CO6)ccc4C3)nc(NC3(CO)CCC3)c21 (some centres unmarked) [Compound 153]
0.182 | 8.9 | 35.2 | 94.3 | 0.851 | [O-][S+]1CCc2nc(N3CCc4cc(N5CCCC5)ccc4C3)nc(Nc3cnn(CCO)c3)c21 (centres unmarked) [Compound 191]
 |  |  |  | 1.21 | C[C@H]1c2ccc(N3CCCC3)cc2CCN1c1nc2c(c(Nc3cnn(CCO)c3)n1)[S+]([O-])CC2 (some centres unmarked) [Compound 210]
0.197 |  |  |  | 0.231 | [O-][S+]1CCc2nc(N3CCc4cc(N5C[C@@H]6[C@@H](CO)[C@@H]6C5)ccc4C3)nc(NC3(CO)CCC3)c21 (some centres unmarked) [Compound 174]
0.98 | 8.7 | 42.6 | 97.3 | 2.92 | C[C@@H]1c2ccc(Br)cc2CCN1c1nc2c(c(NC3(CO)CCC3)n1)[S+]([O-])CC2 (some centres unmarked) [Compound 124]
0.227 | 11.7 | 50.4 | 98.2 | 0.75 | COc1nn(C)cc1Nc1nc(N2CCc3cc(N4CCCC4)ccc3[C@@H]2C)nc2c1[S+]([O-])CC2 (some centres unmarked) [Compound 216]
0.607 | 6.1 | 51.5 | 97.8 | 0.716 | C[C@H]1CCN1c1ccc2c(c1)CCN(c1nc3c(c(NC4(CO)CCC4)n1)[S+]([O-])CC3)C2 (some centres unmarked) [Compound 176]
0.117 | 14.7 | 74.4 | 99.9 | 0.119 | C[C@H]1c2ccc(N3CCCC3)cc2CCN1c1nc2c(c(NC3(CO)COC3)n1)[S+]([O-])CC2 (some centres unmarked) [Compound 200]
0.43 | 5.99 | 38.3 | 96 | 1.08 | [O-][S+]1CCc2nc(N3CCc4cc(N5CCC(F)C5)ccc4C3)nc(NC3(CO)CCC3)c21 (centres unmarked) [Compound 149]

IC50 (PDE4B2) [nM] | inhibition at 0.001 µM (Flpin-293-PDE4B2 cells) [%] | inhibition at 0.01 µM (Flpin-293-PDE4B2 cells) [%] | inhibition at 0.1 µM (Flpin-293-PDE4B2 cells) [%] | IC50 (PDE4D2) [nM] | Molecule
0.418 | 11.8 | 49.6 | 97.5 | 0.694 | [O-][S+]1CCc2nc(N3CCc4cc(N5CC[C@@H](F)C5)ccc4C3)nc(NC3(CO)CCC3)c21 (some centres unmarked) [Compound 150]
0.945 | 3.24 | 34.6 | 97.5 | 1.25 | C[C@H]1c2ccc(N3CCCC3)cc2CCN1c1nc2c(c(NC3(CO)CCOCC3)n1)[S+]([O-])CC2 (some centres unmarked) [Compound 212]
0.608 | 18.1 | 67.4 | 97.7 | 1.79 | [O-][S+]1CCc2nc(N3CCc4cc(N5CCCC5)ccc4C3)nc(NCCO)c21 (centres unmarked) [Compound 198]
0.457 | 9.23 | 61.6 | 98.2 | 0.453 | [O-][S+]1CCc2nc(N3CCc4cc(N5CCC6(CC5)COC6)ccc4C3)nc(NC3(CO)CCC3)c21 (centres unmarked) [Compound 166]
0.729 | 1.97 | 26.7 | 86.9 | 1.29 | CN1CCN(c2ccc3c(c2)CCN(c2nc4c(c(NC5(CO)CCC5)n2)[S+]([O-])CC4)C3)CC1 (centres unmarked) [Compound 170]
0.14 | 15.4 | 60.3 | 99.2 | 0.45 | [O-][S+]1CCc2nc(N3CCc4cc(N5CCCC5)ccc4C3)nc(Nc3cnn(C4COC4)c3)c21 (centres unmarked) [Compound 192]
0.426 | 16.1 | 66 | 99.2 | 0.748 | CO[C@@H]1CCN(c2ccc3c(c2)CCN(c2nc4c(c(NC5(CO)CCC5)n2)[S+]([O-])CC4)C3)C1 (some centres unmarked) [Compound 152]
0.0693 | 23.7 | 89.5 | 100 | 0.244 | COC(=O)N1CC[C@H](Nc2nc(N3CCc4cc(N5CCCC5)ccc4C3)nc3c2[S+]([O-])CC3)C1 (some centres unmarked) [Compound 196]
0.164 | 9.78 | 73 | 100 | 0.424 | NC(=O)Cc1ccc(Nc2nc(N3CCc4cc(Cl)ccc4C3)nc3c2[S+]([O-])CC3)cc1 (centres unmarked) [Compound 127]
0.297 | 11.8 | 57.9 | 100 | 0.59 | [O-][S+]1CCc2nc(N3CCc4cc(N5CC[C@@H](O)C5)ccc4C3)nc(NC3(CO)CCC3)c21 (some centres unmarked) [Compound 130]
0.194 | 7.33 | 72.3 | 99.9 | 0.596 | C[C@H]1c2ccc(N3CCCC3)cc2CCN1c1nc2c(c(N[C@@H]3CC[C@H]3O)n1)[S+]([O-])CC2 (some centres unmarked) [Compound 201]
0.7 | 3.99 | 37.3 | 92.1 | 1.1 | CN(C)C1CCN(c2ccc3c(c2)CCN(c2nc4c(c(NC5(CO)CCC5)n2)[S+]([O-])CC4)C3)C1 (centres unmarked) [Compound 148]
0.44 | 7.35 | 51.4 | 98.6 | 0.697 | [O-][S+]1CCc2nc(N3CCc4cc(N5CCOCC5)ccc4C3)nc(NC3(CO)CCC3)c21 (centres unmarked) [Compound 144]
0.67 | 3.1 | 37.3 | 96.3 | 0.824 | [O-][S+]1CCc2nc(N3CCc4cc(N5CC6C(C5)C6(F)F)ccc4C3)nc(NC3(CO)CCC3)c21 (centres unmarked) [Compound 161]
1.37 | 14 | 55.1 | 96 | 2.79 | [O-][S+]1CCc2nc(N3CC[C@@H]4c5ccc(Cl)nc5OC[C@H]4C3)nc(NC3(CO)CCC3)c21 (some centres unmarked) [Compound 119]
0.147 | 16.6 | 76 | 98.7 | 0.333 | [O-][S+]1CCc2nc(N3CCc4cc(N5CC[C@@H](CO)C5)ccc4C3)nc(NC3(CO)CCC3)c21 (some centres unmarked) [Compound 131]
 |  |  |  | 0.876 | (R)-2-(7-fluoro-6-(pyrrolidin-1-yl)-3,4-dihydroisoquinolin-2(1H)-yl)-4-((1-(hydroxymethyl)cyclobutyl)amino)-6,7-dihydrothieno[3,2-d]pyrimidine 5-oxide [Compound 181]
0.22 |  |  |  | 0.766 | C[C@H]1c2ccc(N3CCCC3)cc2CCN1c1nc2c(c(Nc3cnn(C4COC4)c3)n1)[S+]([O-])CC2 (some centres unmarked) [Compound 208]
13.3 |  |  |  | 23.8 | Cn1cnc(Nc2nc(N3CCc4cc(N5CCCC5)ccc4C3)nc3c2[S+]([O-])CC3)c1 (centres unmarked) [Compound 197]
